Results: patent US20180282279A1, “Pantothenamide Analogues” (Radboud Universitair Medisch Centrum, priority 2014, published 2018)
In brackets after ≈: the same amount, converted by molar mass. Where two headings read alike, the source gives them in different places.

What was measured:
[1] = tested on: Plasmodium falciparum NF54 parasites; test: P. falciparum asexual blood stage replication assay (SYBR Green); format: cell-based; conditions: NF54, 10% human serum, 72 incubation
Procedure: Compounds were tested on their ability to inhibit replication of the human malaria parasite Plasmodium falciparum. To this end, Plasmodium falciparum NF54 parasites were cultured in RPMI1640 medium supplemented with 367 μM hypoxanthine, 25 mM HEPES, 25 mM sodiumbicarbonate and 10% human type A serum in an automated large-scale culture system as described before (Transactions of the Royal Society of Tropical Medicine and Hygiene, 1982. 76: p. 812-818). Compounds were diluted in DMSO and subsequently in culture medium to reach a DMSO concentration of 0.2%. 50 μl of diluted compound was transferred to a black 96 well plate. A culture of P. falciparum strain NF54 malaria parasites was diluted to a parasitaemia of 0.5% and a hematocrit of 3%. 50 μl of this diluted culture was added to each well in the 96 well plate._The outermost wells of the plate were filled with sterile water to prevent evaporation. The established antimalarial dihydroartemisinin (DHA) in DMSO acted as a positive control (MIN signal), and 0.1% DMSO acted as a negative control (MAX signal). The plates were incubated for 72 at 37° C., 3% 02, 5% CO2, 93% N2. Changes in parasite replication relative to the controls were monitored using the DNA-marker SYBR Green as described previously (Antimicrob Agents Chemother 48:1803-6). Data were analyzed by logistic regression using the formula: Y=Bottom+(Top-Bottom)/(1+10̂((Log IC50−X)*HillSlope)) and a least squares method to find the best fit.
Using similar methods, IC50 values were determined for a variety of inverted pantothenamides, as listed in table 1 (see section: ‘Detailed description of the invention’)

Streptococcus pyogenes = test: Bacterial growth assay and MIC determination, S. pyogenes; format: cell-based; conditions: Streptococcus pyogenes; Table 1; most sensitive species S. pyogenes (SP); read-out: MIC (μg/ml) for most sensitive bacterial species
Procedure: (§1) Strains of Escherichia coli, Staphylococcus aureus and Staphylococcus epidermidis, were grown overnight in 1% Bacto tryptone medium (BD, Sparks, Md.). Streptococcus pyogenes was grown overnight in Bacto Todd Hewitt Broth medium (BD, Sparks, Md.). Cultures were then diluted 1:1,000 in fresh assay medium supplemented with or without 20% fetal bovine serum (FBS; HyClone, Celbio, Logan, Utah) and added to 96-well sterile enzyme-linked immunosorbent assay (ELISA) plates (100 μl per well). The compounds to be tested were diluted in the medium without serum and added to the bacteria (100 μl per well). Plates were incubated at 37° C., and bacterial growth was monitored over time by reading the optical density at 490 nm using a microplate reader (model 450; Bio-Rad Laboratories Inc., Hercules, Calif.). Streptococcus pneumoniae strains were grown to mid-log phase (OD620 of 0.3) and stored in 15% glycerol at […] till further use. Minimal inhibitory concentration (MIC) of antibiotics was determined according to standard procedures. Bacteria were diluted 10-fold in Mueller-Hinton medium (BD, Sparks, Md.) and added to 96-well sterile ELISA plates (150 μl per well). The compounds to be tested were diluted in the medium without serum and added to the bacteria (150 μl per well). Plates were incubated overnight at 37° C. in 5% CO2. The MIC was defined as the lowest concentration of compound at which no growth was visible with the naked eye.

[2] = tested on: S. aureus (SA), S. epidermidis (SE), S. pyogenes (SP), S. pneumoniae (SPn); test: MIC for most sensitive bacterial species (panel); format: cell-based; conditions: Table 1, no species named, read-out: MIC (μg/ml) for most sensitive bacterial species
Procedure: as §1

[3] = tested on: Staphylococcus epidermidis; test: Bacterial growth assay and MIC determination, S. epidermidis; format: cell-based; conditions: Staphylococcus epidermidis; Table 1; most sensitive species S. epidermidis (SE); read-out: MIC (μg/ml) for most sensitive bacterial species
Procedure: as §1

[4] = tested on: P. falciparum gametocytes; test: microbe, parasite or virus in culture; format: cell-based, Plasmodium falciparum; conditions: Plasmodium falciparum; 72 hour incubation; read-out: Gametocyte viability (pLDH) IC50
Procedure: Compounds were tested for their ability to affect the viability of gametocytes, the sexually committed blood stages of P. falciparum that underlie transmission to the mosquito vector. To this end, two different assays were performed. The first assay monitored pLDH activity as a measure of viability of gametocytes (J Antimicrob Chemother. 2013 September; 68(9):2048-58). The second assay monitored the ability of gametocytes to form a female gamete by detection of the gamete-specific marker Pfs25. Plasmodium falciparum NF54 parasites were cultured in RPMI1640 medium supplemented with 367 μM hypoxanthine, 25 mM HEPES, 25 mM sodiumbicarbonate and 10% human type A serum in an automated large-scale culture system as described before (Transactions of the Royal Society of Tropical Medicine and Hygiene, 1982. 76: p. 812-818). Cultures were treated with 50 mM N-acetyl-D-glucosamine from day 4 till day 9 to kill asexual parasites. On day 11 gametocytes were isolated by discontinuous 63% Percoll gradient centrifugation. Compounds were diluted in DMSO and subsequently in culture medium to reach a DMSO concentration of 0.2%. To measure the effect of compounds of pLDH activity, gametocytes were seeded at a density of 3.5×10^4 gametocytes per well in a black 384 well plate in 30 μl of culture medium, and 30 μl of diluted compound was added. Following a 72 hour incubation at 37° C., 98% humidity, 93% N2, 4% CO2 and 3% O2, gametocyte viability was measured by a modified plasmodium lactate dehydrogenase assay by using resazurin as a substrate as previously described (Nature, 2013. 504(7479): p. 248-53). Assays were performed in quadruplicate (two different plates with two different gametocyte batches) and all plates included controls MIN (1 μM DHA), MAX (0.1% DMSO) and a serial dilution of reference compound dihydroartemisinin (DHA).

[5] = tested on: P. falciparum gametocytes; test: Gametocyte female gametogenesis capacity assay (Pfs25 AlphaLISA); format: cell-based; conditions: Plasmodium falciparum; 72 hours incubation, Table 3; read-out: Gametocyte gametogenesis capacity (Pfs25) IC50
Procedure: To monitor compound effects on the ability of a gametocyte to form a female gamete, day 11 (stage IV) gametocytes were seeded at a density of 4×10^5 gametocytes per well in a V-bottom plate in 50 μl culture medium. 50 μl of diluted compound was added to the gametocytes (0.1% DMSO final concentration) and plates were incubated for 72 hours at 37° C., 98% humidity, 93% N2, 4% CO2 and 3% O2. Subsequently, gametogenesis was induced by adding xanthurenic acid to a final concentration of 40 μM and plates were incubated for 16 hours at 20° C. Gametes were detected in a homogeneous proximity immunoassay on basis of Pfs25 expression by use of AlphaLISA technology (Perkin Elmer). All steps were performed at 20° C. Gametes were washed twice with PBS, lysed for 15 min in 10 μl 10 mM Tris pH 8.0/1% laurylsarcosyl/1 mM phenylmethanesulfonyl fluoride and combined with 10 μl 5 nM biotinylated mouse anti-Pfs25 monoclonal antibody 32F6244 in a white 384 well optiplate (Perkin Elmer). After 1 hour incubation 15 μl of 33 μg/ml acceptorbeads coated with mouse anti-Pfs25 monoclonal antibody 32F81 were added. After 1 hour incubation, 15 μl 33 μg/ml Streptavidin-conjugated donorbeads were added. Finally, after 1 hour incubation luminescence signals were monitored at the 615 nm emission wavelength following excitation at 680 nm using a fluorometer (Biotek Synergy 2). All compounds were tested in duplicate (24 hr) or triplicate (1 and 72 hr). Controls included MIN (0.1 μM epoxomicin) and MAX (0.1% DMSO). Data were analyzed by logistic regression using the formula: Y=Bottom+(Top−Bottom)/(1+10̂((Log IC50−X)*HillSlope)) and a least squares method to find the best fit.

[6] = Streptococcus pneumoniae, marked *: not tested for S. pneumoniae

Row | Compound | IC50 [1] | MIC (Streptococcus pyogenes) | also measured
1 | CC(C)(CO)[C@@H](O)C(=O)NCCNC(=O)CCc1cccc(F)c1 [CXP18.6-018] | 0.1 µM | 16 µg/mL (≈ 47 µM) | –
2 | CC(C)(C)c1ccc(CCC(=O)NCCNC(=O)[C@H](O)C(C)(C)CO)cc1 [CXP18.6-043] | 0.15 µM | – | MIC ([2]; tested for SA, SE, SP and SPn): > 32 µg/mL
3 | CCOCCC(=O)NCCNC(=O)[C@H](O)C(C)(C)CO [CXP14.18-035] | > 10 µM | 16 µg/mL (≈ 55.1 µM) | –
4 | CC(C)CCC(=O)NCCNC(=O)[C@H](O)C(C)(C)CO [CXP14.18-005] | 2.78 µM | 8 µg/mL (≈ 27.7 µM) | –
5 | CCC(=O)NCCNC(=O)[C@H](O)C(C)(C)CO [CXP14.18-019] | 0.17 µM | – | MIC [2, 6]: > 32 µg/mL
6 | C#CCCCC(=O)NCCNC(=O)[C@H](O)C(C)(C)CO [CXP14.18-016] | 0.81 µM | 32 µg/mL (≈ 113 µM) | –
7 | CCCC(=O)NCCNC(=O)[C@H](O)C(C)(C)CO [CXP14.18-020] | 2 µM | 32 µg/mL (≈ 123 µM) | –
8 | CSCCCC(=O)NCCNC(=O)[C@H](O)C(C)(C)CO [CXP14.18-034] | 0.62 µM | 8 µg/mL (≈ 26.1 µM) | –
9 | CCCCC(=O)NCCNC(=O)[C@H](O)C(C)(C)CO [CXP14.18-028] | 0.85 µM | 2 µg/mL (≈ 7.29 µM) | –
10 | CC(C)(CO)[C@@H](O)C(=O)NCCNC(=O)CCc1ccc(C(F)(F)F)cc1 [CXP18.6-042] | 0.21 µM | – | MIC ([2]; tested for SA, SE, SP and SPn): > 32 µg/mL
11 | CCCCCCCCCCC(=O)NCCNC(=O)[C@H](O)C(C)(C)CO [CXP14.18-012] | > 10 µM | – | MIC [3]: 8 µg/mL (≈ 22.3 µM)
12 | CCSCCC(=O)NCCNC(=O)[C@H](O)C(C)(C)CO [CXP14.18-038] | 0.37 µM | 8 µg/mL (≈ 26.1 µM) | –
13 | CC(C)(CO)[C@@H](O)C(=O)NCCNC(=O)CCc1ccccc1C(F)(F)F [CXP18.6-038] | 6.4 µM | – | MIC [3]: 32 µg/mL (≈ 82 µM)
14 | CC(C)(CO)[C@@H](O)C(=O)NCCNC(=O)CCc1cccs1 [CXP18.6-047] | 0.1 µM | 8 µg/mL (≈ 24.4 µM) | IC50 [4]: > 10000 nM; IC50 [5]: 168 nM
15 | CC(C)(CO)[C@@H](O)C(=O)NCCNC(=O)CCc1ccncc1 [CXP18.6-056] | 0.47 µM | – | MIC [2, 6]: > 32 µg/mL
16 | CC(C)(CO)[C@@H](O)C(=O)NCCNC(=O)CCc1ccc(Cl)cc1 [CXP18.6-028] | 0.19 µM | – | MIC ([2]; tested for SA, SE, SP and SPn): > 32 µg/mL
17 | CC(C)(CO)[C@@H](O)C(=O)NCCNC(=O)CCc1ccccc1Cl [CXP18.6-027] | 0.58 µM | – | MIC ([2]; tested for SA, SE, SP and SPn): > 32 µg/mL
